{"source": "patent US20040040047A1", "about": "(priority 1998, published 2004)", "key": {"RM-1 cells": {"system": "RM-1 cells", "conditions": "single treatment with adenovirus expressing HSV-tk and ganciclovir; cited from earlier work"}, "[1]": {"system": "tumor cell types expressing herpes virus tk", "conditions": "cited from earlier work"}, "S-Fv2-Casp1": {"target": "T1, S-Fv2-Casp1 (Homo sapiens, UniProt P62942, F37V)", "T1 construct": "caspase-1 (same polypeptide); expressed in transfected cells; host or cells: Jurkat TAg", "T1 sequence (P62942 2-108 F37V)": "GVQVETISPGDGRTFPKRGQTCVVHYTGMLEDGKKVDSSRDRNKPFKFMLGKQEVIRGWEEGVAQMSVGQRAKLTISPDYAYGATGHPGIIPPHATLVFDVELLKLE", "T1 sequence (P29466 2-404 partner limits assumed)": "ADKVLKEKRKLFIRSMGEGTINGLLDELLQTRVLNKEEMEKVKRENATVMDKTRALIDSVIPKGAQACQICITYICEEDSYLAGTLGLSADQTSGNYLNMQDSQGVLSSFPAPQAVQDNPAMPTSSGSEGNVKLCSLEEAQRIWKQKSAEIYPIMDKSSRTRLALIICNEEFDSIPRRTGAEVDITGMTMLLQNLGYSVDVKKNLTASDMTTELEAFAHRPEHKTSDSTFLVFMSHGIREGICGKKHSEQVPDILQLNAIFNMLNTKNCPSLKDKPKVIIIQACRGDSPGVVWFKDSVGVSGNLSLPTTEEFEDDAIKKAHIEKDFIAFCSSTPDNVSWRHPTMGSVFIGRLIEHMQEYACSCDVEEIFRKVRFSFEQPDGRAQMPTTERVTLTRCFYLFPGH", "assay": "SEAP reporter assay, Jurkat TAg cells, S-Fv2-Casp1", "type": "cell-based", "conditions": "caspase-1 fused to two Fvs, no linker", "protocol": "(§1) Jurkat TAg cells (10^7) in log phase growth were electroporated (950 μF, 250 V) with expression plasmid and 2 μg SRα-SEAP. […] Units of SEAP activity are reported directly and as a percentage of activity relative to no stimulation (“% Relative SEAP activity”). All experiments were repeated at least three times and representative experiments performed with duplicate samples are shown."}, "FKBP12V36 (Fv)": {"target": "FKBP12V36 (Fv) (Homo sapiens, UniProt P62942, F37V)", "sequence (P62942 whole entry F37V)": "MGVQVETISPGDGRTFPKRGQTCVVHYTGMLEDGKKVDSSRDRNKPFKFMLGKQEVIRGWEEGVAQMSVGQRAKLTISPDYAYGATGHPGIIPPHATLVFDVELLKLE", "assay": "CID binding to mutant FKBP12 (F36V, Fv)", "conditions": "relative to AP1903"}, "S-Fv3-Casp3": {"target": "T2, S-Fv3-Casp3 (Homo sapiens, UniProt P62942, F37V)", "T2 construct": "caspase-3 (same polypeptide); expressed in transfected cells; host or cells: Jurkat TAg", "T2 sequence (P62942 2-108 F37V)": "as the sequence (P62942 2-108 F37V) above", "T2 sequence (P42574 2-277 partner limits assumed)": "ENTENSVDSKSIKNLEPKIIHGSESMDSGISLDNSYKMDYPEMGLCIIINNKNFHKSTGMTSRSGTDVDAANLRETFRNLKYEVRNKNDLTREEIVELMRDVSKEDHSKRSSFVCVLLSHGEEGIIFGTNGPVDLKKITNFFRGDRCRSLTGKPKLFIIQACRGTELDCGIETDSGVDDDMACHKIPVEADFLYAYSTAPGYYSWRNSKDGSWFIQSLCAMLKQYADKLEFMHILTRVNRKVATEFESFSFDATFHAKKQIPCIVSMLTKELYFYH", "assay": "SEAP reporter assay, Jurkat TAg cells, S-Fv3-Casp3", "type": "cell-based", "conditions": "construct containing three Fvs; read-out: IC50 (decrease in SEAP activity)", "protocol": "as §1"}, "Fv2-casp-3/S163": {"target": "T3, Fv2-casp-3/S163 (Homo sapiens, UniProt P42574+P62942, C163S/F37V)", "T3 construct": "caspase-3 C163S (same polypeptide); expressed in transfected cells; host or cells: Jurkat TAg", "assay": "SEAP reporter assay, Jurkat TAg cells transfected with inactive Fv2-casp-3/S163", "type": "cell-based", "conditions": "100 nM AP1903, enzymatically inactive caspase-3", "protocol": "Jurkat TAg cells (10^7) in log phase growth were electroporated (950 μF, 250V; Gene Pulser II) with expression plasmid and 1-2 μg SRα-SEAP. After 24 hours, transformed cells were stimulated with CID or anti-Fas antibody (CH.11, Kamiya Biomedical). After an additional 20 hours, supernatants were assayed for SEAP activity as described previously (15). Units of SEAP activity are reported directly and as a percentage of activity relative to no stimulation within the same transfections (% Relative Activity).\nIn contrast to caspase-1 and Fas, conditional caspase-3 alleles are not apparently autotoxic (FIGS. 7-9). With reference to FIGS. 7 and 8, Jurkat TAg cells were transiently-transfected with: 2 μg Fv2-casp-3 (open squares), or 2 μg Fv2-casp-3/S163 (closed squares). With reference to FIG. 9, Jurkat TAg cells were transfected with: 2 μg Fpk3-casp-3/S163 (closed triangles), 2 μg Fpk3-casp-3 (open squares), or 2 μg Fpk3-Δ20casp-3 (closed squares). After 20 hours, transfected cells were treated and analyzed as before. Data is representative of at least three independent experiments performed in duplicate."}, "inactivated YAMA": {"target": "T4, inactivated YAMA (Homo sapiens, UniProt P42574+P62942, C163S/F37V)", "T4 construct": "caspase-3 C163S (same polypeptide); expressed in transfected cells; host or cells: JD and CR-2a (smooth muscle cell lines from BPH patients)", "assay": "Luciferase survival assay, BPH-derived smooth muscle cells transfected with inactivated YAMA", "type": "cell-based", "conditions": "with or without AP1903, 24 hours", "source_text": "(§2) Conditional Fas, YAMA and a YAMA construct containing a single, inactivating point mutation were cotransfected with a luciferase reporter plasmid (pGL2) into JD and CR-2a cell lines. These are smooth muscle cell lines derived from prostate tissue samples taken from patients with BPH. […] Cells were then lysed and assayed for luciferase activity as a marker of cell survival.\n(§3) It is worth noting that a conditional Fas-based treatment for BPH is not possible since the Fas construct was not effective in causing apoptosis in BPH derived cell lines. It is quite likely that Fas-based methods will be ineffective in many other cell types, thus severely limiting the utility of this approach."}, "JD-2a cells": {"system": "JD-2a cells", "assay": "Fluorescent microscopy of JD-2a cells infected with Adv-Fv1-YAMA", "type": "cell-based, human", "conditions": "Adv-Fv1-YAMA MOI ~25, 50 nM AP1903 for 24 hours", "protocol": "Replication deficient (ΔE1) adenoviral vectors expressing green flourescent protein and conditional Caspase 1 (ICE) or Caspase 3 (YAMA) were engineered. These vectors independently express green fluorescent protein so that infected cells are easily identified by their green color under fluorescent microscopy.\n40,000 JD-2a cells per well were plated in 24-well plates and infected at a multiplicity-of-infection (MOI) of ˜25 with Adv-Fv1-YAMA, an adenoviral vector expressing CID-regulated YAMA. […] All of the cells incubated with virus and maintained in control media appeared green, and were clearly attached and viable, similar to non-fluorescent non-infected JD-2a cells (FIG. 47b)."}, "Fv2-casp-3 [2]": {"target": "T5, Fv2-casp-3 (Homo sapiens, UniProt P62942, F37V)", "T5 construct": "caspase-3 (same polypeptide); expressed in transfected cells; host or cells: Jurkat TAg", "T5 sequence (P62942 2-108 F37V)": "as the sequence (P62942 2-108 F37V) above", "assay": "Western blot of processing and degradation of Fv2-casp-3 in Jurkat cells", "type": "cell-based", "protocol": "Jurkat TAg cells were electroporated with 2 μg of plasmid, cultured 36 hours, and stimulated with drug for the indicated time period. Approximately 5×10^5 cells were lysed in 100 μl RIPA buffer (0.01M TrisHCl pH 8.0, 140 mM NaCl, 1% Triton X-100, 1 mM phenylmethylsulfonyl fluoride, 1% sodium deoxycholate, 0.1% SDS) on ice for 30 minutes. Cell debris were pelleted and supernatants were boiled in 1:1 Laemmli sample buffer (with 5% β-ME) for 5 minutes. […] Membranes were incubated with monoclonal anti-HA epitope antibody, HA.11 (BABCO) followed by polyclonal HRP-conjugated goat anti-mouse antibody (Bio-Rad). Bands were detected with SuperSignal-Chemiluminescent Substrate (Pierce).\nProcessing of caspase-3, and other caspases, ordinarily involves two or more cleavages after aspartic acid residues. To confirm that the CID-mediated diminution of reporter activity was caused by activation of the conditional caspases, the processing and degradation of conditional caspase-3 was directly examined. Jurkat cells were transfected 2 μg Fv2-casp-3 or Fv2-casp-3/S163. […] Following these incubations, cell extracts were analyzed by western blotting using monoclonal antibodies to an epitope tag (HA) placed at both ends of the construct.\nThe breakdown products of caspase-3 activation were not seen even though epitope tags were present at both ends of the protein. […] Therefore, homomultimerization of the caspases, caspase-1 and caspase-3, is sufficient for their activation."}, "conditional Fas": {"target": "T6, conditional Fas (Homo sapiens, UniProt P62942, F37V)", "T6 construct": "Fas cytoplasmic portion (same polypeptide); expressed in transfected cells; host or cells: JD and CR-2a (smooth muscle cell lines from BPH patients)", "T6 sequence (P62942 2-108 F37V)": "as above", "T6 sequence (P25445 191-335 partner limits assumed)": "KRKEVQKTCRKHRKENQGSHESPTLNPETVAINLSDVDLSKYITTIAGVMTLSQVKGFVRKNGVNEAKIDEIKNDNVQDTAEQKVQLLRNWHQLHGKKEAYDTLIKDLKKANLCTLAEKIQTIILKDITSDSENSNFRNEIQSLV", "assay": "Luciferase survival assay, BPH-derived smooth muscle cells transfected with conditional Fas", "type": "cell-based", "conditions": "with or without AP1903, 24 hours", "source_text": "as §2, §3"}, "conditional YAMA": {"target": "T7, conditional YAMA (Homo sapiens, UniProt P62942, F37V)", "T7 construct": "caspase-3 / YAMA (same polypeptide); expressed in transfected cells; host or cells: JD and CR-2a (smooth muscle cell lines from BPH patients)", "T7 sequence (P62942 2-108 F37V)": "as the sequence (P62942 2-108 F37V) above", "T7 sequence (P42574 2-277 partner limits assumed)": "as the sequence (P42574 2-277 partner limits assumed) above", "assay": "Luciferase survival assay, BPH-derived smooth muscle cells (JD, CR-2a) transfected with conditional YAMA", "type": "cell-based", "source_text": "as §2, §3"}, "Fv2-casp-3 [3]": {"target": "T5, Fv2-casp-3", "assay": "SEAP reporter assay, Jurkat TAg cells transfected with Fv2-casp-3", "type": "cell-based", "conditions": "2 μg Fv2-casp-3, Jurkat TAg, in the presence of AP1903"}}}
{"compound": "Nc1nc(O)c2ncn(COC(CO)CO)c2n1", "note": "[ganciclovir]", "values": [{"measurement": "reduction in lung colonization", "setting": "RM-1 cells", "result": 40, "unit": "%"}, {"measurement": "dose up to which the cell line was essentially immune", "setting": "[1]; ESB cell line", "result": "up to 1 μg/mL"}, {"measurement": "time necessary to effect a substantial amount of cell death", "setting": "[1]; high doses of ganciclovir", "result": "6 to 22", "unit": "days"}]}
{"compound": "FK1012", "values": [{"measurement": "IC50", "setting": "S-Fv2-Casp1", "result": 1, "unit": "nM"}, {"measurement": "lower affinity of FK1012 for Fv versus AP1903", "setting": "FKBP12V36 (Fv)", "result": "ten-fold"}, {"measurement": "IC50", "setting": "S-Fv3-Casp3", "result": "~20", "unit": "nM"}]}
{"compound": "CC[C@H](C(=O)N1CCCC[C@H]1C(=O)O[C@H](CCc1ccc(OC)c(OC)c1)c1cccc(OCC(=O)NCCNC(=O)COc2cccc([C@@H](CCc3ccc(OC)c(OC)c3)OC(=O)[C@@H]3CCCCN3C(=O)[C@@H](CC)c3cc(OC)c(OC)c(OC)c3)c2)c1)c1cc(OC)c(OC)c(OC)c1", "note": "[AP1903]", "values": [{"measurement": "reduction of reporter activity", "setting": "Fv2-casp-3/S163", "result": "could not reduce reporter activity"}, {"measurement": "reduction in the percentage of surviving cells", "setting": "inactivated YAMA", "result": "no significant reduction"}, {"measurement": "cells either dead or in the process of undergoing apoptosis", "setting": "JD-2a cells", "result": "> 99", "unit": "%"}, {"measurement": "time to full degradation of Fv2-casp-3", "setting": "Fv2-casp-3 [2]; 100 nM AP1903", "result": "four"}, {"measurement": "time to complete degradation of full-length caspase-3", "setting": "Fv2-casp-3 [2]; 500 nM AP1903", "result": "≤ 2", "unit": "h"}, {"measurement": "concentration sufficient to cause the processing and degradation of the majority of Fv2-casp-3", "setting": "Fv2-casp-3 [2]; treated for eight hours, half-log dilutions", "result": 10, "unit": "nM"}, {"measurement": "reduction in the percentage of surviving cells", "setting": "conditional Fas", "result": "no significant reduction"}, {"measurement": "reduction in reporter activity", "setting": "conditional YAMA; 100 μM AP1903 for 24 hours", "result": 82, "unit": "%"}, {"measurement": "luciferase activity", "setting": "conditional YAMA; treated with 100 μM AP1903 for 24 hours, 668±67 without AP1903", "result": "119±13"}, {"measurement": "reduction in reporter activity", "setting": "Fv2-casp-3 [3]", "result": "≈ 65%"}]}
